Experimental data from patent publication US20250281424A1 (New York Blood Center, Inc, priority 2020, published 2025).
In brackets after ≈: the same amount, converted by molar mass. Where two headings read alike, the source gives them in different places. Each block holds one compound with its values, some of them ahead of it.

Columns and labels:
[1] = Mouse microsome stability; assay type: in vitro ADME; details: for half-life at 0.5 μM: Mouse microsomes, compound conc = 0.5 μM, n = 1, read-out: Mouse microsome stability Half life t1/2; for intrinsic clearance in mouse microsome assay / stability in mouse microsome assay: mouse microsomes
From the text: (§1) Certain exemplified compounds were examined for ADMET (absorption, distribution, metabolism, excretion and toxicity) profiling using conventional assays with the results shown in the Tables 3A-3C below.

P450 2C19 = P450 2C19 (Homo sapiens, UniProt P33261); experiment: P450 inhibition 2C19; assay type: in vitro ADME
Method: as §1
(§2) Examples 1 and 3 were evaluated as inhibitors of the five P450s that are the source of most DDI issues. […] The tested compounds meet drug property criteria for IV administration.

[2] = Experimentally determined pKa; assay type: physicochemical
[3] = Experimentally determined log D; assay type: physicochemical
Heparin-PF4-KKO mice = experiment: In vivo activity, heparin-PF4-KKO induced thrombocytopenia (mouse model of HIT)
Method: Heparin-PF4-KKO mice that were induced to thrombocytopenia were administered the compound of Example 1. The dosing regimen was guided by the PK results in Table 4 (see Example A6). At T0hr, 5 mg/kg of Compound 1 was given by retro-orbital injection. 1000 units/kg heparin was injected subcutaneously at T3hr. At T4hr, 20 mg/kg of KKO antibody was administered by retro-orbital injection. Also at T4hr, an additional 5 mg/kg of the compound was injected intraperitoneally. Platelet count was measured at T8hr.

[4] = Kinetic solubility pH 7.4; assay type: physicochemical
From the text: as §1

P450 2D6 = P450 2D6 (Homo sapiens, UniProt P10635); experiment: P450 inhibition 2D6; assay type: in vitro ADME
Method: as §1, §2

[5] = molecular target: human Ether-à-go-go-Related Gene (hERG) (Homo sapiens, UniProt Q12809); experiment: hERG patch clamp assay; assay type: in vitro ADME; details: for hERG inhibition: 30 μM concentration, patch clamp
Method: as §1, §2

[6] = molecular target: T1, ultra large complexes (ULC) between PF4 tetramers and heparin (Homo sapiens, UniProt P02776); experiment: Inhibition of formation of ultra large complexes (ULC) of PF4 tetramers and heparin; assay type: biochemical; details: for IC50: IC50 values are +/−20%
T1 construct: platelet factor 4 which is a 70 amino acid, lysine-rich, 7.8 kDa platelet-specific protein
T1 sequence (P02776 32-101): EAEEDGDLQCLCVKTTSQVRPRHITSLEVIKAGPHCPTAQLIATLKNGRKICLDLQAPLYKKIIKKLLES
Method: Since ULCs are formed as part of a dynamic equilibrium between heparin and PF4, dynamic light scattering (DLS) was performed to measure the ability of the exemplified compounds to disrupt preformed ULCs. Samples were analyzed and included PF4 incubated in the absence or presence of unfractionated heparin (UFH) for 20 min at room temperature at PF4 to heparin ratios (PHR) of 1:0 (no heparin), 2:1, and 0.64:1. The samples were then analyzed using photon correlation spectroscopy on a DynaPro® DLS instrument and Dynamics® software (V6.7.6; […]) to obtain correlation function. The results of the DLS analysis indicate the percentage of ULCs and small PF4 particles. Data for the small particles (a population of particles with a mean hydrodynamic diameter of about 1 nm) and data for the large particles (a population of particles with a mean hydrodynamic diameter of about 300 nm) is assessed. Data are expressed as the percent of total intensity from each measurement, the mean of 10 measurements, and representative of two such experiments.
ELISA measurement and gel filtration measurement of ULC inhibition were performed as described in International Patent Publication No. WO2013/142328, which is incorporated herein by reference. Similarly, assays in which heparin concentrations are varied to determine the effect on ULC inhibition were performed as described in that publication.
Certain compounds were evaluated for their ability to inhibit formation of ultra large complexes (ULC) between PF4 tetramers and heparin.

[7] = Pharmacokinetics after IV bolus in CD-1 mice; assay type: in vivo
Method: PK parameters were measured and reported in Table 4 as follows: C0 represents concentration in ng/ml at t=0 min; AUC0-last represents area under the curve for t=0 min to last time point; AUC0-∞ represents area under the curve for t=0 min to infinity.

[8] = Cytotoxicity HepG2 (MTS reduction); assay type: cell-based; details: human, HepG2 cells; read-out: Cytotox HepG2 EC50
P450 3A4 (midazolam) = P450 3A4 (midazolam) (Homo sapiens, UniProt P08684); experiment: P450 inhibition 3A4 (midazolam); assay type: in vitro ADME
Method: as §1, §2

[9] = Plasma protein binding (PPB, mouse); assay type: in vitro ADME; details: mouse, plasma; read-out: PPB mouse (% bound) (converted)
From the text: as §1

plasma protein = experiment: Plasma protein binding (PPB, mouse); assay type: in vitro ADME
From the text: as §1

[10] = pH 7.4, aqueous buffer, kinetic from dmso stock
[11] = mouse, plasma, CD-1 mice, 1 mg/kg IV bolus

Sequence of P450 2D6 (P10635 whole entry): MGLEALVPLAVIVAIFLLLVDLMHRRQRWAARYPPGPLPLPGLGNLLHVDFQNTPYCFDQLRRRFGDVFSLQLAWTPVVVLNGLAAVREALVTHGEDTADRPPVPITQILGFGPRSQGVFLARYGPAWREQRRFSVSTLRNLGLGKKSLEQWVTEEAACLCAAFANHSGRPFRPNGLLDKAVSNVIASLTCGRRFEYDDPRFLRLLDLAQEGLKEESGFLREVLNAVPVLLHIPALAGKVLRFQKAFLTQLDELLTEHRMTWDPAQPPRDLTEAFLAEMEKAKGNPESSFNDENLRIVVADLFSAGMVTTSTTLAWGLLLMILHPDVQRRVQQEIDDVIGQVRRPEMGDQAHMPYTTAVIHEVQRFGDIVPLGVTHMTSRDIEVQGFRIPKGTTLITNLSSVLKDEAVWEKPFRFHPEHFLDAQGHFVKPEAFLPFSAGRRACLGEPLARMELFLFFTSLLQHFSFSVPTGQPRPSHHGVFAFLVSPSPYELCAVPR
Sequence of P450 3A4 (midazolam) (P08684 whole entry): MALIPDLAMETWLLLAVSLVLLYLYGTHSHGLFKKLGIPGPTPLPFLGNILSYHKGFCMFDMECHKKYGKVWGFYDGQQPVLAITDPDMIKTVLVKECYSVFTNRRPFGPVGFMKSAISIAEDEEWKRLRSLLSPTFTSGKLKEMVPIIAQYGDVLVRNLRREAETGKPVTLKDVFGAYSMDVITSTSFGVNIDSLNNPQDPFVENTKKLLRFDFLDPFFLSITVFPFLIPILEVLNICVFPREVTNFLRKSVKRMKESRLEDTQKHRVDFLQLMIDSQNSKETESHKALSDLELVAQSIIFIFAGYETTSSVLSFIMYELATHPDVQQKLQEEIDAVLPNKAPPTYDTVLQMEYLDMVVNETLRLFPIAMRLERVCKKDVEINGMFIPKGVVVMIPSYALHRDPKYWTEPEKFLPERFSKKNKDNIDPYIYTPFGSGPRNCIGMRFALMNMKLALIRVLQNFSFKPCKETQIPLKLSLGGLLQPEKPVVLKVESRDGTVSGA
Sequence of P450 2C19 (P33261 whole entry): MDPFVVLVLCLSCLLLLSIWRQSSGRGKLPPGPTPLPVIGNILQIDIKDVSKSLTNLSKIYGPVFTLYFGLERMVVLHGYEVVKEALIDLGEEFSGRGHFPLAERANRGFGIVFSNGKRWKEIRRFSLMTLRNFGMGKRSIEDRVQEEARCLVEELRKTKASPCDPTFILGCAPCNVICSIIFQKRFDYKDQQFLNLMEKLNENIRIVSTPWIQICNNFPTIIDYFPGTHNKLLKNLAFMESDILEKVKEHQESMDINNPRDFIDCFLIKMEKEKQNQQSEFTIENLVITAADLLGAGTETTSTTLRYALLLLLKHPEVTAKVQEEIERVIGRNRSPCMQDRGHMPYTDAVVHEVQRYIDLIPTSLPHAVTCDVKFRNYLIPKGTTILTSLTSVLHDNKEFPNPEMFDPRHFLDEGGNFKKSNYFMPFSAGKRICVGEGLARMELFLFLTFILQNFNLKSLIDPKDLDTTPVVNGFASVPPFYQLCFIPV
Sequence of human Ether-à-go-go-Related Gene (hERG) (Q12809 whole entry): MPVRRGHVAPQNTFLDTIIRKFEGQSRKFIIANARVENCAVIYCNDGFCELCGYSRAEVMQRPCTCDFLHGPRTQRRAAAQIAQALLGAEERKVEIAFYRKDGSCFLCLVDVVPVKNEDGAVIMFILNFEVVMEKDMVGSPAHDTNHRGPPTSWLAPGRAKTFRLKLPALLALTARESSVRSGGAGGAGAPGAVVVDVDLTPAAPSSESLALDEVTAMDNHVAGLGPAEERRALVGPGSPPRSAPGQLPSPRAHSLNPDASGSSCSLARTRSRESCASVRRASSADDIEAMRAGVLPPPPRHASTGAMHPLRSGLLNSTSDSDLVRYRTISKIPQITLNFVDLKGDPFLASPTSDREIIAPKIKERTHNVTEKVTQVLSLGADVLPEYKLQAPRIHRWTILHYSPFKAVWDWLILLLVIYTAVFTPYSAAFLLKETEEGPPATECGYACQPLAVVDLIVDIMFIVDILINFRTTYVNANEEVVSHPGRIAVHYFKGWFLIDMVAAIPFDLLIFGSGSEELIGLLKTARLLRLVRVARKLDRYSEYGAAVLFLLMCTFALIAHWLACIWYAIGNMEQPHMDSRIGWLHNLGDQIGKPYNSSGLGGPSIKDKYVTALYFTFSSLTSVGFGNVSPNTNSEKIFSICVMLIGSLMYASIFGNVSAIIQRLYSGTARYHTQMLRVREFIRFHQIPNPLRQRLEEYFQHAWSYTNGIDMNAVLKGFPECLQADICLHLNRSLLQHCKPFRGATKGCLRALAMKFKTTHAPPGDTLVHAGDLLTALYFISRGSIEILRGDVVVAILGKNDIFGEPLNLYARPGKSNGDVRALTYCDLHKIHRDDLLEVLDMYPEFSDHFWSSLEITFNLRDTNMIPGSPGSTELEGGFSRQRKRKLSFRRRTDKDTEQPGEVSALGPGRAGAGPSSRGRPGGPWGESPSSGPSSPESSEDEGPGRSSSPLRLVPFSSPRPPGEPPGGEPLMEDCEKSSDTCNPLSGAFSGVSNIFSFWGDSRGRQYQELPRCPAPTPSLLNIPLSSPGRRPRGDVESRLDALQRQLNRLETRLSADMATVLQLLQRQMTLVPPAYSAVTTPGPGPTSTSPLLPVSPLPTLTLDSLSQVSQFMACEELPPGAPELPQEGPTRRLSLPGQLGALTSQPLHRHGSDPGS

SMILES: CC(=O)C1C(=O)c2ccc(C(=O)c3ccc4c(c3)C(=O)C(C(C)=O)C4=O)cc2C1=O (stereo not shown) [Example 1, 5,5′-carbonylbis(2-acetyl-1h-indene-1,3(2h)-dione)]
half-life at 0.5 μM [1]: > 2.42 h
intrinsic clearance in mouse microsome assay [1]: low intrinsic clearance
stability in mouse microsome assay [1]: excellent stability
IC50 (P450 2C19): > 100 µM
inhibition of P450 2C19 (P450 2C19): no inhibition
pKa [2]: 1.99
logD [3]: 0.53
tolerability (Heparin-PF4-KKO mice; mice, 5 mg/kg IV and IP doses): tolerated the 5 mg/kg IV and IP doses of the compound well
heparin-PF4-KKO induced thrombocytopenia in vivo (Heparin-PF4-KKO mice; mouse model of HIT (FIG. 4)): reduces heparin-PF4-KKO induced thrombocytopenia in vivo
platelet counts at 4 hr, remaining mouse (Heparin-PF4-KKO mice; one of the four mice): only a little higher than DMSO controls
platelet counts 4 hr after KKO administration (Heparin-PF4-KKO mice; three of the four mice, 5 mg/kg retro-orbital at T0hr + 5 mg/kg IP at T4hr): > 80 % of baseline
solubility kinetic ([4]; pH 7.4): >200 µM
solubility kinetic [4, 10]: > 200 µM
IC50 (P450 2D6): > 100 µM
inhibition of P450 2D6 (P450 2D6): no inhibition
IC50 [5]: > 30 µM
hERG inhibition [5]: no significant inhibition
IC50 [6]: 8 µM
time the concentration was sustained above 1 μM ([7]; 1 mg/kg, CD-1 mice (FIG. 5)): greater than 4 hours
clearance ([7]; CD-1 mice, 1 mg/kg IV): low clearance
half-life ([7]; CD-1 mice, 1 mg/kg IV): long half-life
volume of distribution ([7]; CD-1 mice, 1 mg/kg IV): low clearance and volume of distribution
AUC(0-inf) [7, 11]: 9350 ± 778 ng·h/mL
AUC(0-t) [7, 11]: 9190 ± 704 ng·h/mL
half-life ([7]; mouse, plasma, CD-1 mice, 1 mg/kg IV bolus, average of 3 mice, read-out: t1/2 (converted)): 4.59 ± 0.584 h
C0 ([7]; mouse, plasma, CD-1 mice, 1 mg/kg IV bolus, concentration at t=0 min): 15100 ± 2070 ng/mL
clearance ([7]; mouse, plasma, CD-1 mice, 1 mg/kg IV bolus, read-out: Clearance): 1.79 ± 0.147 mL/min/kg
Vd ([7]; mouse, plasma, CD-1 mice, 1 mg/kg IV bolus, read-out: Volume of distribution (Vdss)): 0.448 ± 0.0121 L/kg
EC50 [8]: > 1000 µg/mL
IC50 (P450 3A4 (midazolam)): > 100 µM
inhibition of P450 3A4 midazolam (P450 3A4 (midazolam)): no inhibition

half-life at 0.5 μM [1]: > 2.42 h
intrinsic clearance in mouse microsome assay [1]: low intrinsic clearance
stability in mouse microsome assay [1]: excellent stability
inhibition of P450 2C19 (P450 2C19): no inhibition
IC50 (P450 2C19; read-out: P450 Inhibition IC50 2C19): > 100 µM
fraction unbound [9]: 0.043
protein binding (plasma protein): high protein binding
aqueous solubility [4]: good aqueous solubility
solubility kinetic [4, 10]: 88.2 µM (≈ 40.8 µg/mL)
inhibition of P450 2D6 (P450 2D6): no inhibition
IC50 (P450 2D6; read-out: P450 Inhibition IC50 2D6): > 100 µM
inhibition of ULC formation ([6]; FIG. 6B): dose-dependent inhibition
IC50 [6]: 2 µM
inhibition of P450 3A4 midazolam (P450 3A4 (midazolam)): no inhibition
IC50 (P450 3A4 (midazolam); midazolam, read-out: P450 Inhibition IC50 3A4 (midazolam)): > 100 µM
SMILES: CCOC(=O)C1C(=O)c2ccc(C(=O)c3ccc4c(c3)C(=O)C(C(=O)OCC)C4=O)cc2C1=O (stereo not shown) [Example 3, diethyl 5,5′-carbonylbis(1,3-dioxo-2,3-dihydro-1h-indene-2-carboxylate)]
hERG inhibition [5]: no significant inhibition
IC50 ([5]; read-out: hERG IC50): > 30 µM
EC50 [8]: > 500 µg/mL
